Results: patent US20190169218A1, “AMPHIPATHIC COMPOUND HAVING NOVEL PENTA-SACCHARIDE HYDROPHILIC GROUP AND USE THEREOF” (Industry-University Cooperation Foundation Hanyang …, priority 2016, published 2019)

What was measured:
[1] = hydrodynamic radius of micelles by dynamic light scattering (DLS); type: physicochemical; conditions: compound at 1.0 wt %
Outline: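 Micelle hydrodynamic radius (Rh) was measured by dynamic light scattering with each amphiphile at 1.0 wt %.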

[2] = target: T1, boron transporter (BOR1) BOR1-GFP fusion protein (Arabidopsis thaliana, UniProt Q8VYR7); experiment: structural (thermal) stability of solubilized BOR1-GFP by fluorescence-based size exclusion chromatography (FSEC); conditions: for structural stability of solubilized BOR1-GFP after heating (RFU, FSEC): heated at 40° C. for 10 minutes, 1 wt % compound
T1 construct: made in house; host or cells: Saccharomyces cerevisiae FGY217
Experimental: The ability of PSAs or PSEs to stabilize the structure of boron transporter (BOR1) was measured in an aqueous solution. That is, the BOR1 protein solubilized in each amphipathic compound was denatured by heating, and then structural stability of BOR1 was measured using fluorescence-based size exclusion chromatography (FSEC).
Specifically, Arabidopsis thaliana-derived BOR1 was expressed in the form of a fusion protein having a GFP tag at the C-terminus in Saccharomyces cerevisiae FGY217 cells. The cells were grown in an URA-medium supplemented with 0.1% glucose. 2% galactose was added to the cell culture to induce protein expression and the cells were cultured at 20° C. for 18 hours (see Drew, D. et al., Nat. Protoc. 2008, 3, 784-798.). After culture, the cells were harvested and used to obtain the cell membranes (see Leung, J. et al., Protein Expr. Purif. 2010, 72, 139-146.). Membranes containing BOR1-GFP fusion proteins were diluted to a final total protein concentration of 2.8 mg/mL in PBS (pH7.4) supplemented with 1 wt % DDM, 1 wt % PSAs (PSA-C9, PSA-C10 or PSA-C11) or 1 wt % PSEs (PSE-C9, PSE-C11 or PSE-C13). The diluted samples were incubated at 4° C. for 1 hour with gentle shaking, and insoluble substances were removed by centrifugation at 14,000 g for 1 hour at 4° C. Supernatants containing the dissolved protein samples were incubated for 10 minutes at the specified temperature (35, 40, 45 or 50° C.), and strongly agglutinated proteins were removed by centrifugation at 14,000 g for 10 minutes at 4° C. 200 μL aliquots were taken from the supernatant and injected into a Superose 6 10/300 column equilibrated with 20 mM Tris-HCl (pH 7.5), 150 mM NaCl and 0.03% DDM. Each elution fraction was collected from a retention volume of 6.4 mL (i.e., after 6.4 mL of solution had passed), and added to a well of a clear bottom 96-well plate at a volume of 200 μL. GFP fluorescence generated in each fraction was measured using an excitation wavelength of 470 nm and an emission wavelength of 512 nm.

[3] = system: leucine transporter (LeuT); experiment: LeuT stability, [3H]-Leu binding by scintillation proximity assay (SPA); type: biochemical, Aquifex aeolicus; conditions: room temperature
Experimental: The ability of PSAs, PSEs or TPSs (TPS-A/E/ELs) to stabilize leucine transporter (LeuT), a membrane protein, was measured. LeuT purified by DDM was mixed with a solution containing each amphipathic compound, and the mixture was incubated at room temperature for 12 days. The activity of LeuT proteins was measured by scintillation proximity assay (SPA) using a ligand ([^3H]-Leu), and the concentration of PSAs, PSEs, TPSs or DDM was (a) CMC+0.04 wt %, or (b) CMC+0.2 wt %.
Specifically, LeuT stability measurement was performed in the following manner. According to the results of Example 6, PSA-C10, PSA-C11, PSE-C9, PSE-C11, and PSE-C13 were selected as the amphipathic compounds of PSAs and PSEs except for PSA-C9, and wild type leucine transporter (LeuT) was purified from Aquifex aeolicus using TPS-As, TPS-Es and TPS-EL, according to the method described in G. Deckert et al. (Nature 1998, 392, 353-358.). E. coli C41 (DE3) was transformed with a pET16b plasmid containing a gene construct encoding C-terminal 8×His-tagged LeuT, and thus LeuT was expressed in the form of a fusion protein having 8×His tags at the C-terminus in the transformed E. coli C41 (the expression plasmid was provided by Dr. E. Gouaux, Vollum Institute, Portland, Oreg., USA). Briefly, bacterial membranes containing LeuT were treated with 1.0 wt % DDM, and proteins were bound to Ni^2+-NTA resin (Life Technologies, Denmark). LeuT bound to the resin was eluted using a buffer solution containing 20 mM Tris-HCl (pH 8.0), 1 mM NaCl, 199 mM KCl, 0.05% DDM and 300 mM imidazole. Next, about 1.5 mg/mL of protein stock was diluted 10-fold in an equivalent buffer supplemented with TPS-As, TPS-Es, TPS-ELs, PSAs/PSEs (PSA-C10, PSA-C11, PSE-C9, PSE-C11 and PSE-C13) or DDM (control group) to a final concentration of CMC+0.04 wt % or CMC+0.2 wt % without DDM and imidazole. The protein samples were stored at room temperature and centrifuged at designated times. Protein activity was determined by measuring the degree of binding to [^3H]-Leu using scintillation proximity assay (SPA) (M. Quick et al., Proc. Natl, Acad. Sci. U.S.A. 2007, 104, 3603-3608.). Briefly, SPA was performed with 5 μL of each protein sample dissolved in a buffer containing 450 mM NaCl and each test compound. The SPA reaction was performed in the presence of 20 nM [^3H]-Leu and copper chelate (His-Tag) YSi beads (both were purchased from PerkinElmer, Denmark). The degree of binding to [^3H]-Leu was measured using a MicroBeta liquid scintillation counter (PerkinElmer).

Structure (SMILES)	Rh (nm), hydrodynamic radius of micelles [1]	state of solubilized BOR1-GFP after heating ([2]; 35° C. for 10 minutes)	state of solubilized BOR1-GFP after heating ([2]; 40 or 45° C. for 10 minutes)	structural stability of solubilized BOR1-GFP after heating (RFU, FSEC) [2]	maintenance of LeuT activity during 12 days of incubation ([3]; CMC+0.04 wt %)	maintenance of LeuT activity during 12 days of incubation ([3]; CMC+0.2 wt %)	LeuT transporter activity retained after 12 days of incubation ([3]; CMC+0.2 wt %, 12 days)
CCCCCCCCCCCCO[C@@H]1O[C@H](CO)[C@@H](O[C@H]2O[C@H](CO)[C@@H](O)[C@H](O)[C@H]2O)[C@H](O)[C@H]1O [DDM, n-dodecyl-β-D-maltopyranoside, reference compound]	3.4 ± 0.03 nm	retained the original state thereof	complete denaturation/aggregation occurred	RFUs were relatively low due to denaturation after heating			
CCCCCCCCCCCC(CCCCCCCCCCC)CO[C@@H]1OC(CO[C@@H]2OC(CO)[C@@H](O)C(O)C2O)[C@@H](O[C@@H]2OC(CO)[C@@H](O)C(O)C2O)C(O[C@@H]2OC(CO)[C@@H](O)C(O)C2O)C1O[C@@H]1OC(CO)[C@@H](O)C(O)C1O (stereo partly drawn) [PSA-C11]	3.28 ± 0.03 nm			remarkably improved as compared to DDM and PSA-C9			
CCCCCCCCCCCOCC(COCCCCCCCCCCC)O[C@@H]1OC(CO[C@@H]2OC(CO)[C@@H](O)C(O)C2O)[C@@H](O[C@@H]2OC(CO)[C@@H](O)C(O)C2O)C(O[C@@H]2OC(CO)[C@@H](O)C(O)C2O)C1O[C@@H]1OC(CO)[C@@H](O)C(O)C1O (stereo partly drawn) [PSE-C11]	3.46 ± 0.05 nm		maintained monodispersibility	greatly improved compared to DDM	did not show any appreciable decrease in protein activity	completely preserved	100%
CCCCCCCCCCCCCOCC(COCCCCCCCCCCCCC)O[C@@H]1OC(CO[C@@H]2OC(CO)[C@@H](O)C(O)C2O)[C@@H](O[C@@H]2OC(CO)[C@@H](O)C(O)C2O)C(O[C@@H]2OC(CO)[C@@H](O)C(O)C2O)C1O[C@@H]1OC(CO)[C@@H](O)C(O)C1O (stereo partly drawn) [PSE-C13]	14.1 ± 0.24 nm			greatly improved compared to DDM	did not show any appreciable decrease in protein activity		
CCCCCCCCOCC(COCCCCCCCC)(COCCCCCCCC)CO[C@@H]1OC(CO[C@@H]2OC(CO)[C@@H](O)C(O)C2O)[C@@H](O[C@@H]2OC(CO)[C@@H](O)C(O)C2O)C(O[C@@H]2OC(CO)[C@@H](O)C(O)C2O)C1O[C@@H]1OC(CO)[C@@H](O)C(O)C1O (stereo partly drawn) [TPS-E8]	43.8 ± 16.3 nm				remained intact	completely preserved	
